Data taken from patent US12161630B2, “Methods to control infection using new generation small molecule growth inhibitors” (priority 2017, dated 2024).

What was measured:
S. typhimurium WT [1] = test: High-throughput primary screen for S. typhimurium growth inhibitors at 200 μM; type: cell-based, Salmonella enterica subsp. enterica serovar Typhimurium LT2; details: adjusted M9 minimal broth, 12 hrs, 37° C., bactericidal = 100% growth inhibition and no growth on XLT4 agar, bacteriostatic = 100% growth inhibition but growth on XLT4 agar
Experimental: Identification of S. typhimurium growth inhibitors: The 4182 small molecules (SMs) were screened at 200 μM against S. typhimurium WT using HTS assay in a 96-well plate format. An overnight Salmonella suspension was normalized at 0.05 OD600 (approximately 3.5×10^7 CFU/ml) with an adjusted M9 minimal broth medium (12.7 mM Na2HPO4 7H2O; 22 mM KH2PO4; 18.7 mM NH4Cl; 2 mM MgSO4; 0.1 mM CaCl2; 0.4% glucose; 0.05% casamino acids). 100 μL of the suspension plus 2 μl of SMs (200 μM) were transferred into each well of a sterile, non-treated, flat bottom 96-well plate. Bacteria alone (negative control, NC), 2% DMSO plus bacteria (DMSO control), 20 μg/ml chloramphenicol or 50 μg/ml kanamycin plus bacteria (positive controls, PC), and M9 medium only were used as control. Plates were incubated in a Sunrise™ Tecan kinetic microplate reader for 12 hrs at 37° C. and the optical density (OD) was measure at 600 nm as described above. Percentage of inhibition=[…]. SMs were identified as growth inhibitors if their inhibition value after incubation was above 20% (value representing the inhibition level monitored with the DMSO controls). Cultures from wells showing no turbidimetric increase were transferred onto a XLT4 agar plate. Plates were incubated at 37° C. for 36 hrs.

S. typhimurium WT [2] = test: Combined antimicrobial study between antibiotics and SMs; type: cell-based, Salmonella enterica subsp. enterica serovar Typhimurium LT2; details: for MBCAlone (MBC of the antibiotic by itself, no SM): S. typhimurium WT, adjusted M9 minimal broth; for MBCComb4 (MBC of antibiotic in antibiotic+SM4 combination) / SM4R (result of synergy testing, antibiotic+SM4): [SM4] 10 μM; for MBCComb5 (MBC of antibiotic in antibiotic+SM5 combination) / SM5R (result of synergy testing, antibiotic+SM5): [SM5] 25 μM; for effect of the presence of SM on antibiotic MBC: combined with SM1, SM3, SM4 or SM5; for reduction in MBC when combined with SM1: antibiotic combined with SM1
Experimental: Combined antimicrobial study between antibiotics and small molecules (SMs): The antimicrobial efficacy of several antibiotics commonly used to control Salmonella was studied once combined with the selected four SMs. […] The MBC of each antibiotic were pre-determined as described previously. Bacteria challenged with only SMs or antibiotics at the same concentrations were used to determine the ATB-SM combination effects. […] Plates were incubated in a Sunrise™ Tecan kinetic microplate reader for 12 hrs at 37° C. and the optical density (OD) was measure at 600 nm as described above. After challenging, survival was recorded following plating of the bacterial suspension on agar plate and incubated at 37° C. for 36 hrs. The ATB-SM combination effect was calculated as described in Doern CD, 2014 (12).

COc1cccc(N=Cc2cc(Cl)cc(Cl)c2O)c1 [SM8, 2,4-dichloro-6-{[(3-methoxyphenyl)imino]methyl}phenol]
Effect on S. Typhimurium at 200 μM (S. typhimurium WT [1]): Bactericidal

CC1=NN(c2ccccc2)C(=O)C1C(=O)c1ccccc1 (stereo not shown) [SM18, 4-benzoyl-5-methyl-2-phenyl-2,4-dihydro-3H-pyrazol-3-one]
Effect on S. Typhimurium at 200 μM (S. typhimurium WT [1]): Bacteriostatic

CN1C(=O)NC(=O)C(=Cc2ccc([N+](=O)[O-])o2)C1=O [SM17, 1-methyl-5-[(5-nitro-2-furyl)methylene]-2,4,6(1H,3H,5H)-pyrimidinetrione]
Effect on S. Typhimurium at 200 μM (S. typhimurium WT [1]): Bacteriostatic

Clc1ccc(CCNC2CCN(Cc3ccccc3)CC2)c(Cl)c1 [SM13, 1-benzyl-N-[2-(2,4-dichlorophenyl)ethyl]-4-piperidinamine]
Effect on S. Typhimurium at 200 μM (S. typhimurium WT [1]): Bacteriostatic

CN(Cc1ccccc1)CC(O)COc1ccc(CNCc2ccc(Cl)s2)cc1 (stereo not shown) [SM6, 1-[benzyl(methyl)amino]-3-[4-({[(5-chloro-2-thienyl)methyl]amino}methyl)phenoxy]-2-propanol]
Effect on S. Typhimurium at 200 μM (S. typhimurium WT [1]): Bactericidal

C(=Cc1ccccc1)CN1CCN(C2c3ccccc3-c3ccccc32)CC1 [SM19, 1-(9H-fluoren-9-yl)-4-(3-phenyl-2-propen-1-yl)piperazine]
Effect on S. Typhimurium at 200 μM (S. typhimurium WT [1]): Bacteriostatic

O=[N+]([O-])c1ccc(F)c(N=Cc2cc(Cl)cc(Cl)c2O)c1 [SM7, 2,4-dichloro-6-{[(2-fluoro-5-nitrophenyl)imino]methyl}phenol]
Effect on S. Typhimurium at 200 μM (S. typhimurium WT [1]): Bactericidal

COc1cccc(C2(c3ccc(O)cc3)CCCC2)c1 [SM11, 4-[1-(3-methoxyphenyl)cyclopentyl]phenol]
Effect on S. Typhimurium at 200 μM (S. typhimurium WT [1]): Bacteriostatic

CC[C@H]1OC(=O)[C@H](C)[C@@H](O[C@H]2C[C@@](C)(OC)[C@@H](O)[C@H](C)O2)[C@H](C)[C@@H](O[C@@H]2O[C@H](C)C[C@H](N(C)C)[C@H]2O)[C@](C)(O)C[C@@H](C)C(=O)[C@H](C)[C@@H](O)[C@]1(C)O [Erythromycin, erythromycin]
MBCAlone (MBC of the antibiotic by itself, no SM) (S. typhimurium WT [2]): 200 µg/mL | MBCComb1 (MBC of antibiotic in antibiotic+SM1 combination) (S. typhimurium WT [2]; [SM1] 50 μM): 200 µg/mL | SM1R (result of synergy testing, antibiotic+SM1) (S. typhimurium WT [2]; [SM1] 50 μM): Ind | MBCComb3 (MBC of antibiotic in antibiotic+SM3 combination) (S. typhimurium WT [2]; [SM3] 25 μM): 200 µg/mL | SM3R (result of synergy testing, antibiotic+SM3) (S. typhimurium WT [2]; [SM3] 25 μM): Ind | MBCComb4 (MBC of antibiotic in antibiotic+SM4 combination) (S. typhimurium WT [2]): 200 µg/mL | SM4R (result of synergy testing, antibiotic+SM4) (S. typhimurium WT [2]): Ind | MBCComb5 (MBC of antibiotic in antibiotic+SM5 combination) (S. typhimurium WT [2]): 200 µg/mL | SM5R (result of synergy testing, antibiotic+SM5) (S. typhimurium WT [2]): Ind | effect of the presence of SM on antibiotic MBC (S. typhimurium WT [2]): no effect

C[C@@H](O)[C@H]1C(=O)N2C(C(=O)O)=C(S[C@@H]3CN[C@H](C(=O)N(C)C)C3)[C@H](C)[C@H]12 [Meropenem, meropenem]
MBCAlone (MBC of the antibiotic by itself, no SM) (S. typhimurium WT [2]): 0.2 µg/mL | MBCComb1 (MBC of antibiotic in antibiotic+SM1 combination) (S. typhimurium WT [2]; [SM1] 5 μM): 0.16 µg/mL | SM1R (result of synergy testing, antibiotic+SM1) (S. typhimurium WT [2]; [SM1] 5 μM): Add | MBCComb1 (MBC of antibiotic in antibiotic+SM1 combination) (S. typhimurium WT [2]; [SM1] 10 μM): 0.08 µg/mL | SM1R (result of synergy testing, antibiotic+SM1) (S. typhimurium WT [2]; [SM1] 10 μM): Add | MBCComb1 (MBC of antibiotic in antibiotic+SM1 combination) (S. typhimurium WT [2]; [SM1] 20 μM): 0.04 µg/mL | SM1R (result of synergy testing, antibiotic+SM1) (S. typhimurium WT [2]; [SM1] 20 μM): Add | MBCComb3 (MBC of antibiotic in antibiotic+SM3 combination) (S. typhimurium WT [2]; [SM3] 15 μM): 0.16 µg/mL | SM3R (result of synergy testing, antibiotic+SM3) (S. typhimurium WT [2]; [SM3] 15 μM): Ind | MBCComb3 (MBC of antibiotic in antibiotic+SM3 combination) (S. typhimurium WT [2]; [SM3] 20 μM): 0.08 µg/mL | SM3R (result of synergy testing, antibiotic+SM3) (S. typhimurium WT [2]; [SM3] 20 μM): Ind | MBCComb4 (MBC of antibiotic in antibiotic+SM4 combination) (S. typhimurium WT [2]): 0.2 µg/mL | SM4R (result of synergy testing, antibiotic+SM4) (S. typhimurium WT [2]): Ind | MBCComb5 (MBC of antibiotic in antibiotic+SM5 combination) (S. typhimurium WT [2]): 0.2 µg/mL | SM5R (result of synergy testing, antibiotic+SM5) (S. typhimurium WT [2]): Ind | reduction in MBC when combined with SM1 (S. typhimurium WT [2]): up to 80%

CO/N=C(\C(=O)N[C@@H]1C(=O)N2C(C(=O)O)=C(COC(C)=O)CS[C@H]12)c1csc(N)n1 [Cefotaxime, cefotaxime]
MBCAlone (MBC of the antibiotic by itself, no SM) (S. typhimurium WT [2]): 3.2 µg/mL | MBCComb1 (MBC of antibiotic in antibiotic+SM1 combination) (S. typhimurium WT [2]; [SM1] 50 μM): 3.2 µg/mL | SM1R (result of synergy testing, antibiotic+SM1) (S. typhimurium WT [2]; [SM1] 50 μM): Ind | MBCComb3 (MBC of antibiotic in antibiotic+SM3 combination) (S. typhimurium WT [2]; [SM3] 25 μM): 3.2 µg/mL | SM3R (result of synergy testing, antibiotic+SM3) (S. typhimurium WT [2]; [SM3] 25 μM): Ind | MBCComb4 (MBC of antibiotic in antibiotic+SM4 combination) (S. typhimurium WT [2]): 3.2 µg/mL | SM4R (result of synergy testing, antibiotic+SM4) (S. typhimurium WT [2]): Ind | MBCComb5 (MBC of antibiotic in antibiotic+SM5 combination) (S. typhimurium WT [2]): 3.2 µg/mL | SM5R (result of synergy testing, antibiotic+SM5) (S. typhimurium WT [2]): Ind | effect of the presence of SM on antibiotic MBC (S. typhimurium WT [2]): no effect

O=C(O)c1cc(NN=Nc2ccc(Br)cc2)cc([N+](=O)[O-])c1 [SM12, 3-[3-(4-bromophenyl)-2-triazen-1-yl]-5-nitrobenzoic acid]
Effect on S. Typhimurium at 200 μM (S. typhimurium WT [1]): Bacteriostatic

CCn1cc(C(=O)O)c(=O)c2ccc(C)nc21 [Nalidixic Acid, nalidixic acid]
MBCAlone (MBC of the antibiotic by itself, no SM) (S. typhimurium WT [2]): 16 µg/mL | MBCComb1 (MBC of antibiotic in antibiotic+SM1 combination) (S. typhimurium WT [2]; [SM1] 30 μM): 8 µg/mL | SM1R (result of synergy testing, antibiotic+SM1) (S. typhimurium WT [2]; [SM1] 30 μM): Ind | MBCComb1 (MBC of antibiotic in antibiotic+SM1 combination) (S. typhimurium WT [2]; [SM1] 40 μM): 4.8 µg/mL | SM1R (result of synergy testing, antibiotic+SM1) (S. typhimurium WT [2]; [SM1] 40 μM): Ind | MBCComb3 (MBC of antibiotic in antibiotic+SM3 combination) (S. typhimurium WT [2]; [SM3] 25 μM): 16 µg/mL | SM3R (result of synergy testing, antibiotic+SM3) (S. typhimurium WT [2]; [SM3] 25 μM): Ind | MBCComb4 (MBC of antibiotic in antibiotic+SM4 combination) (S. typhimurium WT [2]): 16 µg/mL | SM4R (result of synergy testing, antibiotic+SM4) (S. typhimurium WT [2]): Ind | MBCComb5 (MBC of antibiotic in antibiotic+SM5 combination) (S. typhimurium WT [2]): 16 µg/mL | SM5R (result of synergy testing, antibiotic+SM5) (S. typhimurium WT [2]): Ind | reduction in MBC when combined with SM1 (S. typhimurium WT [2]): up to 70%

CC(C)Cc1ccc(CN2CCCC(NC(=O)CN3CCCN(C)CC3)C2)cc1 (stereo not shown) [SM9, N-[1-(4-isobutylbenzyl)-3-piperidinyl]-2-(4-methyl-1,4-diazepan-1-yl)acetamide]
Effect on S. Typhimurium at 200 μM (S. typhimurium WT [1]): Bactericidal

COc1ccc(CNCc2ccc(C)cc2)cc1OCC(O)CN1CCCCCCC1 (stereo not shown) [SM15, 1-(1-azocanyl)-3-(2-methoxy-5-{[(4-methylbenzyl)amino]methyl}phenoxy)-2-propanol]
Effect on S. Typhimurium at 200 μM (S. typhimurium WT [1]): Bacteriostatic

CCOC(=O)c1c(N)sc(C(C)=O)c1C [SM10, ethyl 5-acetyl-2-amino-4-methyl-3-thiophenecarboxylate]
Effect on S. Typhimurium at 200 μM (S. typhimurium WT [1]): Bacteriostatic

COc1cccc(N=Cc2cc(Br)ccc2O)c1 [SM16, 4-bromo-2-{[(3-methoxyphenyl)imino]methyl}phenol]
Effect on S. Typhimurium at 200 μM (S. typhimurium WT [1]): Bacteriostatic
